In article PMC12248599, “Exploring the Bioavailability of Red Grape Skin Extract Polyphenols: A Caco-2 Cell Model Study” (Foods, 2025):
Values joined by “and” are separate entries in the source; they are usually repeats but may differ in a detail not shown here. Equal entries are not always repeated. Marks after values point to notes of the source that are not given here.

Assays:
[1] = Caco-2 monolayer transport (bioavailability) study, AB and BA directions; type: in vitro ADME, Homo sapiens; conditions: human; for efflux ratio at 180 min, 15 mg/mL / efflux ratio at 180 min, 22 mg/mL: Caco-2, Papp (BA)/Papp (AB), read-out: ER (efflux ratio); for efflux ratio at 180 min, 15 mg/mL / Papp A→B at 180 min, 15 mg/mL / Papp B→A at 180 min, 15 mg/mL: S1 (15 mg/mL GSE); for efflux ratio at 180 min, 22 mg/mL / Papp A→B at 180 min, 22 mg/mL / Papp B→A at 180 min, 22 mg/mL: S2 (22 mg/mL GSE); for efflux ratio at 180 min: Caco-2, text statement, S1 and S2; for Papp A→B at 180 min, 15 mg/mL / Papp A→B at 180 min, 22 mg/mL / Papp B→A at 180 min, 15 mg/mL / Papp B→A at 180 min, 22 mg/mL: Caco-2; for Papp A→B at 180 min, 15 mg/mL / Papp A→B at 180 min, 22 mg/mL: apical to basolateral; for Papp B→A at 180 min, 15 mg/mL / Papp B→A at 180 min, 22 mg/mL: basolateral to apical
Protocol: (§1) A reversed phase C18 column (Luna 5 μm C18(2) 100 Å, LC Column 250 × 4.6 mm, Phenomenex) was used to separate the polyphenols at a flow rate of 0.7 mL/min with an injection volume of 60 µL. The detection was carried out at 520 nm for anthocyanins (M3G, D3G and Pet3G), at 328 nm for CA, at 356 nm for flavonols (Q3G, K3Gal and K3G) and at 280 nm for GA and SA. The mobile phases were (A) acetonitrile 100% and (B) water 0.1% trifluoroacetic acid (v/v). The gradient was programmed as follows: 10% A 0 min, 10–80% A (0–20 min), 80–100% A (20–25 min), 100% A (25–30 min); 10% A (30–35 min) and 10% A (35–40 min). Every polyphenol was quantified using the corresponding reference standard calibration curve. Each of the quantified phenolic compound concentration was expressed as mg/mL
(§2) For the transport experiment Caco-2 cells were cultured at a density of 4 × 10^4 cells/cm^2 in Transwell inserts (12 mm i.d., 1.12 cm^2 growth area, 0.4 µm mean pore size polycarbonate membranes, Corning Inc., Milwaukee, WI, USA) placed in 12-well plates. Caco-2 cells were grown in DMEM in an incubator at 37 °C in a humidified atmosphere containing 5% CO2.
(§3) Bioavailability studies were performed in triplicate after 21 days of cell growth. Only inserts with stable TEER values higher than ≥300 Ω cm^2 were considered acceptable to perform the bioavailability study. For that purpose, DMEM media was removed, the monolayer was washed with PBS and HBSS was supplied to the cells.
(§4) Likewise, the GSE stock solution was diluted in HBSS medium to prepare GSE solutions S1 and S2. GSE solutions S1 and S2 had concentrations of 15 mg/mL and 22 mg/mL, respectively. These concentrations were established considering previous studies with grape pomace extracts that concluded that intestinal concentrations of 1–2% (w/v) show potential bioactivities and are safe to be used as a food ingredient.
(§5) The apical side represents the intestinal lumen and the basolateral side represents the bloodstream. Each sample (100 µL) was immediately acidified with 1M HCl to a final concentration of 0.007 M and subsequently frozen at −20 °C until analysis by HPLC (according to the method described in Section 2.5). Each experiment was carried out on 3 individual wells. The transport efficiency (TE) percentage was calculated according to Equation (2):Transport efficiency (%) = (C/C0) × 100(2) where, C is the polyphenol concentration at the acceptor side over time and C0 is the initial concentration at the donor side. TE values were calculated for the nine polyphenols identified in the grape skin extract.
(§6) The apparent permeability coefficient (Papp) of the polyphenols in GSE was calculated for apical to basolateral side (AB) and basolateral to apical side (BA) flux studies according to Equation (3):Papp (cm/s) = (dQ/dt) × (VR/AC0)(3) where, dQ/dt is the permeability rate which means the steady-state linear rate of change of concentration (mg/L) per second (s) at the acceptor side; A is the surface area of the cell monolayer (1.12 cm^2). C0 is the initial concentration at the donor side (mg/L) at t = 0 s and VR is the volume of the solution of the acceptor side (mL).
(§7) The efflux ratio (ER) of the polyphenol was assessed by calculating the Equation (4):ER = Papp (BA)/Papp (AB)(4) where, Papp (BA) is the apparent permeability coefficient of the polyphenol from basolateral to apical side and Papp (AB) is the apparent permeability coefficient from apical to basolateral side. ER is a measure of the relative contributions of active and passive transport to bi-direction flux across the cell monolayer.

Caco-2 cell monolayer = experiment: as above; type: in vitro ADME, Homo sapiens; conditions: for reduction in concentration on the apical (donor) side / reduction in concentration on the basolateral (donor) side: 0 to 180 min; for TE (%) transport efficiency: after 180 min
Protocol: as §1, §2, §3, §4, §5, §6, §7

[2] = AB experiment, S1 (15 mg/mL GSE)
[3] = AB experiment, S2 (22 mg/mL GSE)
[4] = AB experiment, acceptor side, S1 (15 mg/mL GSE)
[5] = AB experiment, acceptor side, S2 (22 mg/mL GSE)
[6] = AB experiment, donor side, S1 (15 mg/mL GSE)
[7] = AB experiment, donor side, S2 (22 mg/mL GSE)
[8] = AB experiments, basolateral side
[9] = BA experiment, S1 (15 mg/mL GSE)
[10] = BA experiment, S2 (22 mg/mL GSE)
[11] = BA experiment, acceptor side, S1 (15 mg/mL GSE)
[12] = BA experiment, acceptor side, S2 (22 mg/mL GSE)
[13] = BA experiment, donor side, S1 (15 mg/mL GSE)
[14] = BA experiment, donor side, S2 (22 mg/mL GSE)

## O=C(/C=C/c1ccc(O)c(O)c1)O[C@@H](C(=O)O)[C@@H](O)C(=O)O [CA, caftaric acid]
[1]
  efflux ratio at 180 min, 15 mg/mL: 1.3
  efflux ratio at 180 min, 22 mg/mL: 1.4
  efflux ratio at 180 min: > 1
  Papp A→B at 180 min, 15 mg/mL: 74 ± 3 ×10⁻⁶ cm/s
  Papp A→B at 180 min, 22 mg/mL: 51 ± 2 ×10⁻⁶ cm/s
  Papp B→A at 180 min, 15 mg/mL: 93 ± 7 ×10⁻⁶ cm/s
  Papp B→A at 180 min, 22 mg/mL: 73 ± 8 ×10⁻⁶ cm/s
Caco-2 cell monolayer; [2]
  reduction in concentration on the apical (donor) side: 59 ± 4%
  TE (%) transport efficiency: 7 ± 1%
Caco-2 cell monolayer; [3]
  reduction in concentration on the apical (donor) side: 44.1 ± 0.7%
  TE (%) transport efficiency: 4.4 ± 0.5% and 4.4 ± 0.4%
Caco-2 cell monolayer; [4]
  Basolateral Side 75 min: 0.06 ± 0.01 ^b mg/L
  Basolateral Side 90 min: 0.06 ± 0.01 ^b,c mg/L
  Basolateral Side 115 min: 0.06 ± 0.01 ^b,c mg/L
  Basolateral Side 180 min: 0.07 ± 0.01 ^c mg/L
Caco-2 cell monolayer; [5]
  Basolateral Side 75 min: 0.07 ± 0.01 ^b mg/L
  Basolateral Side 90 min: 0.07 ± 0.01 ^b,c mg/L
  Basolateral Side 115 min: 0.08 ± 0.01 ^b mg/L
  Basolateral Side 180 min: 0.08 ± 0.01 ^b mg/L
Caco-2 cell monolayer; [6]
  Apical Side 0 min: 1.04 ± 0.08 mg/L and 1.04 ± 0.08 ^a mg/L
  Apical Side 75 min: 0.84 ± 0.07 ^b mg/L
  Apical Side 90 min: 0.67 ± 0.07 ^c mg/L
  Apical Side 115 min: 0.54 ± 0.07 ^d mg/L
  Apical Side 180 min: 0.43 ± 0.07 mg/L and 0.43 ± 0.07 ^d mg/L
Caco-2 cell monolayer; [7]
  Apical Side 0 min: 1.82 ± 0.03 mg/L and 1.82 ± 0.03 ^a mg/L
  Apical Side 75 min: 1.54 ± 0.03 ^b mg/L
  Apical Side 90 min: 1.37 ± 0.02 ^c mg/L
  Apical Side 115 min: 1.16 ± 0.02 ^d mg/L
  Apical Side 180 min: 1.01 ± 0.01 mg/L and 1.01 ± 0.01 ^c mg/L
Caco-2 cell monolayer; [8]
  detection at the acceptor side: detected
Caco-2 cell monolayer; [9]
  reduction in concentration on the basolateral (donor) side: 43.5 ± 0.4%
  TE (%) transport efficiency: 11.2 ± 0.8%
Caco-2 cell monolayer; [10]
  reduction in concentration on the basolateral (donor) side: 22.6 ± 0.8%
  TE (%) transport efficiency: 8.7 ± 0.9%
Caco-2 cell monolayer; [11]
  Apical Side 75 min: 0.08 ± 0.01 ^b mg/L
  Apical Side 90 min: 0.09 ± 0.01 ^c mg/L
  Apical Side 115 min: 0.10 ± 0.01 ^d mg/L
  Apical Side 180 min: 0.12 ± 0.01 ^c mg/L
Caco-2 cell monolayer; [12]
  Apical Side 75 min: 0.08 ± 0.01 ^a,b mg/L
  Apical Side 90 min: 0.10 ± 0.01 ^a,b,c mg/L
  Apical Side 115 min: 0.11 ± 0.01 ^b,c mg/L
  Apical Side 180 min: 0.12 ± 0.01 ^c mg/L
Caco-2 cell monolayer; [13]
  Basolateral Side 0 min: 1.04 ± 0.03 ^a mg/L
  Basolateral Side 75 min: 0.91 ± 0.02 ^b mg/L
  Basolateral Side 90 min: 0.80 ± 0.02 ^c mg/L
  Basolateral Side 115 min: 0.70 ± 0.02 ^c,d mg/L
  Basolateral Side 180 min: 0.59 ± 0.02 ^c mg/L
Caco-2 cell monolayer; [14]
  Basolateral Side 0 min: 1.4 ± 0.1 ^a mg/L
  Basolateral Side 75 min: 1.3 ± 0.1 ^b mg/L
  Basolateral Side 90 min: 1.23 ± 0.09 ^c mg/L
  Basolateral Side 115 min: 1.15 ± 0.08 ^d mg/L
  Basolateral Side 180 min: 1.08 ± 0.08 ^c mg/L

## O=C(O)c1cc(O)c(O)c(O)c1 [GA, gallic acid]
[1]
  efflux ratio at 180 min, 15 mg/mL: 0.7
  efflux ratio at 180 min, 22 mg/mL: 0.7
  efflux ratio at 180 min: < 1
  Papp A→B at 180 min, 15 mg/mL: 1690 ± 70 ×10⁻⁶ cm/s
  Papp A→B at 180 min, 22 mg/mL: 1800 ± 200 ×10⁻⁶ cm/s
  Papp B→A at 180 min, 15 mg/mL: 1150 ± 60 ×10⁻⁶ cm/s
  Papp B→A at 180 min, 22 mg/mL: 1290 ± 5 ×10⁻⁶ cm/s
Caco-2 cell monolayer; [2]
  TE (%) transport efficiency: 156 ± 26%
Caco-2 cell monolayer; [3]
  TE (%) transport efficiency: 164 ± 23%
Caco-2 cell monolayer; [4]
  Basolateral Side 75 min: 8.1 ± 0.9 ^b mg/L
  Basolateral Side 90 min: 8.6 ± 0.9 ^b mg/L
  Basolateral Side 115 min: 9.1 ± 0.9 ^b mg/L
  Basolateral Side 180 min: 9.4 ± 0.9 ^b mg/L
Caco-2 cell monolayer; [5]
  Basolateral Side 75 min: 8.1 ± 0.9 ^b mg/L
  Basolateral Side 90 min: 8.6 ± 0.9 ^b mg/L
  Basolateral Side 115 min: 9.1 ± 0.9 ^b mg/L
  Basolateral Side 180 min: 9.6 ± 0.9 ^b mg/L
Caco-2 cell monolayer; [6]
  Apical Side 0 min: 6.1 ± 0.5 ^a mg/L
  Apical Side 75 min: 5.0 ± 0.5 ^b mg/L
  Apical Side 90 min: 4.1 ± 0.4 ^c mg/L
  Apical Side 115 min: 3.4 ± 0.4 ^c,d mg/L
  Apical Side 180 min: 2.9 ± 0.3 ^d mg/L
Caco-2 cell monolayer; [7]
  Apical Side 0 min: 5.9 ± 0.3 ^a mg/L
  Apical Side 75 min: 5.0 ± 0.3 ^b mg/L
  Apical Side 90 min: 4.4 ± 0.3 ^c mg/L
  Apical Side 115 min: 3.7 ± 0.3 ^d mg/L
  Apical Side 180 min: 3.2 ± 0.3 ^d mg/L
Caco-2 cell monolayer; [8]
  detection at the acceptor side: detected
Caco-2 cell monolayer; [9]
  TE (%) transport efficiency: 165 ± 6% and 164 ± 6%
Caco-2 cell monolayer; [10]
  TE (%) transport efficiency: 188 ± 4% and 188 ± 3%
Caco-2 cell monolayer; [11]
  Apical Side 75 min: 8.1 ± 0.3 ^a,b mg/L
  Apical Side 90 min: 9.4 ± 0.2 ^b,c mg/L
  Apical Side 115 min: 10.5 ± 0.3 ^c,d mg/L
  Apical Side 180 min: 11.3 ± 0.3 ^d mg/L
Caco-2 cell monolayer; [12]
  Apical Side 75 min: 8.3 ± 0.5 ^a,b mg/L
  Apical Side 90 min: 9.6 ± 0.5 ^b,c mg/L
  Apical Side 115 min: 10.7 ± 0.6 ^c mg/L
  Apical Side 180 min: 11.5 ± 0.7 ^c mg/L
Caco-2 cell monolayer; [13]
  Basolateral Side 0 min: 6.9 ± 0.3 ^a mg/L
  Basolateral Side 75 min: 6.5 ± 0.3 ^b mg/L
  Basolateral Side 90 min: 6.2 ± 0.3 ^c mg/L
  Basolateral Side 115 min: 5.9 ± 0.3 ^d mg/L
  Basolateral Side 180 min: 5.5 ± 0.2 ^c mg/L
Caco-2 cell monolayer; [14]
  Basolateral Side 0 min: 6.1 ± 0.4 ^a mg/L
  Basolateral Side 75 min: 5.7 ± 0.4 ^b mg/L
  Basolateral Side 90 min: 5.4 ± 0.4 ^c mg/L
  Basolateral Side 115 min: 5.0 ± 0.4 ^d mg/L
  Basolateral Side 180 min: 4.7 ± 0.3 ^d mg/L
Caco-2 cell monolayer; BA experiments, apical side
  detection at the acceptor side: detected
